Assay results as given in ChEMBL document CHEMBL2150877, “γ-Secretase modulators as potential disease modifying anti-Alzheimer's drugs” (J Med Chem, 2011).

What was measured:
Mus musculus [1] = assay: Brain penetration in mouse assessed as brain/plasma ratio at 100 or 300 mg/kg/day for 4 to 5 days; assay type: ADME, organism-based; details: in vivo
[2] = Drug level in mouse brain dosed for 4 weeks; assay type: ADME, organism-based; details: read-out: Drug uptake
Mus musculus [3] = assay: Antialzheimer activity in transgenic hAPP mouse expressing Swedish and London mutations assessed as reduction in plaque number in brain hippocampus dosed for 6 months; assay type: functional; set-up: scale not given: the % may be the effect or the level left
Mus musculus [4] = assay: Antialzheimer activity in transgenic hAPP mouse expressing Swedish and London mutations assessed as reduction in plaque area in brain cortex dosed for 6 months; assay type: functional; set-up: scale not given: the % may be the effect or the level left
[5] = Drug level in brain of Tg2576 mouse expressing human APP Swedish mutant at 60 mg/kg/day after 17 weeks; assay type: ADME, organism-based; details: read-out: Drug uptake
Mus musculus [6] = assay: Antialzheimer activity in transgenic hAPP mouse expressing Swedish and London mutations assessed as reduction in plaque number in brain cortex dosed for 6 months; assay type: functional; set-up: scale not given: the % may be the effect or the level left
Mus musculus [7] = assay: Antialzheimer activity in transgenic Alzheimer disease mouse model assessed as increase in recognition index at 375 ppm dosed for 10 months by object recognition memory test (reference value: 48.9%); assay type: functional
Mus musculus [8] = assay: Antialzheimer activity in transgenic hAPP mouse expressing Swedish and London mutations assessed as reduction in plaque area in brain hippocampus dosed for 6 months; assay type: functional; set-up: scale not given: the % may be the effect or the level left
[9] = Inhibition of gamma secretase assessed as reduction in Abeta42 production
[10] = Drug level in mouse plasma dosed for 4 weeks; assay type: ADME, organism-based
Mus musculus [11] = assay: Antialzheimer activity in transgenic Alzheimer disease mouse model assessed as increase in recognition index at 125 ppm dosed for 10 months by object recognition memory test (reference value: 48.9%); assay type: functional
[12] = Inhibition of gamma secretase expressed in CHO cells assessed as reduction in Abeta40 and Abeta 42 production; assay type: cell-based
Mus musculus [13] = assay: Antialzheimer activity in Tg2576 mouse assessed as reduction in Abeta42 production at 25 mg/kg, po after 18 hrs; assay type: functional; set-up: scale not given: the % may be the effect or the level left
[14] = Inhibition of gamma secretase expressed in CHO cells assessed as reduction in Abeta42 production; assay type: cell-based
Mus musculus [15] = assay: Antialzheimer activity in YAC transgenic mouse model assessed as reduction in brain Abeta42 levels at 10 mg/kg, po measured after 7 hrs; assay type: functional; set-up: scale not given: the % may be the effect or the level left
Mus musculus [16] = assay: Antialzheimer activity in po dosed YAC transgenic mouse model assessed as reduction in Abeta42 levels; assay type: functional
Mus musculus [17] = assay: Antialzheimer activity in po dosed YAC transgenic mouse model assessed as plasma compound concentration causing reduction in brain Abeta42 levels; assay type: functional, organism-based
Mus musculus [18] = assay: Antialzheimer activity in po dosed YAC transgenic mouse model assessed as brain compound concentration causing reduction in brain Abeta42 levels; assay type: functional, organism-based

Row | permeability (Mus musculus [1]) | concentration at 672 h [2] | concentration at 2856 h [5] | IC50 [9] | concentration at 672 h [10] | EC50 (Mus musculus [17]) | EC50 (Mus musculus [18]) | SMILES | Activity (Mus musculus [3]) | Activity (Mus musculus [4]) | Activity (Mus musculus [6]) | Activity (Mus musculus [7]) | Activity (Mus musculus [8]) | Activity (Mus musculus [11]) | IC50 [12] | Activity (Mus musculus [13]) | IC50 [14] | Activity (Mus musculus [15]) | ED50 (Mus musculus [16])
1 | 5% | 20 µM | 6.4 µM | 40 µM | 580 µM | – | – | O=C(O)C1(c2ccc(-c3ccc(Cl)c(Cl)c3)c(F)c2)CC1 | 34% | 32% | 28% | 64.1% | 42% | 62.2% | – | – | – | – | –
2 | – | – | – | – | – | – | – | CC(C)=CCCC(C)(O)[C@H]1CC[C@]2(C)[C@@H]1[C@H](O)C[C@@H]1[C@@]3(C)CC[C@H](O[C@@H]4O[C@H](CO)[C@@H](O)[C@H](O)[C@H]4O[C@@H]4O[C@H](CO)[C@@H](O)[C@H](O)[C@H]4O)C(C)(C)[C@@H]3CC[C@]12C (some centres undefined) | – | – | – | – | – | – | 200 µM | 20% | 25 µM | – | –
3 | – | – | – | 0.6 µM | – | 3.7 µM | 1 µM | CC(C)(C)CC[C@H](CCC(F)(F)F)N1CCC(F)(F)[C@H](CC(=O)O)[C@H]1c1ccc(C(F)(F)F)cc1 | – | – | – | – | – | – | – | – | – | 84% | 5 mg/kg
